“And” between values parts separate entries of the source, which are not always exact repeats. Identical values can stand only once.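 Compound exposure: 48 hours, 5 concentrations, 96-well plates. Abbreviation: GI50, concentration required for 50% inhibition of growth. TGI: total growth inhibition.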
System: MDA-MB-468 breast
Assay: inhibition of tumour cell growth, NCI panel, 48 h

| Structure (SMILES) | GI50 | TGI |
| --- | --- | --- |
| O=C(Nc1ccc(Br)cc1F)c1cc(Cl)ccc1O | 871 nM | 4780 nM |
| COc1cnc2c(c1)C(=O)c1c-2n(CCCN2CCOCC2)c(=O)c2cc(Cl)ccc12 | 183 nM | 544 nM |
| CCOC(=O)Nc1cc2c(c(N)n1)N=C(c1ccccc1)CO2 | 42.7 nM | 394 nM |
| COC(=O)[C@]12CC[C@@H](C)[C@H](C)[C@@H]1C1=CC[C@@H]3[C@@]4(C)C[C@@H](O)[C@H](O)[C@@](C)(CO)C4=CC[C@@]3(C)[C@]1(C)CC2 | 14200 nM | 29700 nM |
| Cc1nc(Nc2cccnc2)sc1C(=O)/C=C/c1ccc(F)cc1 | 3220 nM | 11100 nM |
| CC(=O)ON1CCCC(P(=O)(OCCSC(=O)C(C)(C)C)OCCSC(=O)C(C)(C)C)C1=O (stereo not drawn) | 2670 nM | 23600 nM |
| CN1CCN(c2ccc(Nc3cc(-c4cccc(-n5ccc6cc(C7CC7)cc(F)c6c5=O)c4CO)cn(C)c3=O)nc2)CC1 | 3150 nM | 17100 nM |
| C[n+]1c(/C=C/c2c(O)ccc3ccccc23)ccc2ccccc21 | 1460 nM | 7080 nM |
| COC(=O)c1c2c(c(C)[n+]([O-])c1C)C(=O)C=C(NCc1ccc(F)cc1)C2=O | 284 nM | 978 nM |
| COc1cnc2c(c1)C(=O)c1c-2n(CCCNC2=NCCS2)c(=O)c2cc([N+](=O)[O-])ccc12 | 28.3 nM | 1530 nM |
| O=C(Nc1cc(C(F)(F)F)cc(C(F)(F)F)c1)c1cc(Cl)ccc1O | 195 nM and 238 nM | 715 nM and 799 nM |
| COc1ccc(-c2nnc3n(C)c(=O)c4ccccc4n23)cc1N | 2330 nM | > 100000 nM |
| Cc1nnc(Nc2ccc(NC(=O)Nc3ccc(Cl)cc3)cc2)c2ccccc12 | 2840 nM | 7430 nM |
| O=[N+]([O-])c1ccc(-c2nnc(SCc3ccc(O)c4ncccc34)n2-c2ccccc2)cc1 | 577 nM | 4460 nM |
| CC(C)(/C=C(\C#N)C(=O)N1CCC[C@@H](n2nc(-c3ccc(Oc4ccccc4)cc3F)c3c(N)ncnc32)C1)N1CCN(C2COC2)CC1 | 3630 nM | 14900 nM |
| O=c1oc2ccc(-c3ccc(F)cc3F)cc2c(=O)n1-c1cccc(C(F)(F)F)c1 | 2280 nM and 1130 nM | 5830 nM and 3430 nM |
| O=C(NC[C@H](O)CN1CCc2ccccc2C1)c1cc(NC2COC2)ncn1 | 4250 nM | 24500 nM |
| O=C(Cc1ccc(F)c(Cl)c1)Nc1cc(C2(C(F)(F)F)CC2)nn1CC1CCCCC1 | 2680 nM | 9280 nM |
| COc1cc(N=Nc2ccc(O)c3ncccc23)c2ncccc2c1 | 2270 nM | 6640 nM |
| CNCCOC(=O)/C=C1\CC[C@H]2[C@@H]([C@@H](O)C(=O)[C@@H]3[C@]2(C)CC[C@H](O)[C@]3(C)C(=O)OC)[C@H]1C | 1440 nM | 3690 nM |
| CCOC(=O)N[C@H]1CCc2cc(OC)c(OC)c(OC)c2-c2ccc(SC)c(=O)cc21 | < 10 nM | > 21300 nM |
| NC(=O)c1c(NC(=O)c2ccccc2)sc2c1CCC(=O)C2 | 2460 nM | 6590 nM |
| Nc1ncc(-c2ccc3ncnc(Nc4ccc(F)c(Cl)c4)c3c2)cn1 | 229 nM | 833 nM |
| COc1ccc2nc3ccccc3c(NCc3ccc(F)cc3)c2c1 | 1070 nM | 2930 nM |
| C[C@@H](Nc1c(C#N)cnc2ccc(-c3cnc(Cl)c(NS(C)(=O)=O)c3)cc12)c1ccccc1 | 74.5 nM | 1230 nM |
| NC(N)=N/N=C/c1c(Cl)cccc1Cl | 12400 nM | 26500 nM |
| O=C(/C=C/c1ccc[nH]1)c1ccc(-n2ccc(C(F)(F)F)n2)cc1 | > 54600 nM | > 100000 nM |
| CN(C)CCCNc1c2ccc(Cl)cc2nc2c1oc1ccc(Cl)cc12 | 8020 nM | 21800 nM |
| CN(C)CC[C@H](CSc1ccccc1)Nc1ccc(S(=O)(=O)NC(=O)c2ccc(N3CCN(Cc4ccccc4-c4ccc(Cl)cc4)CC3)cc2)cc1[N+](=O)[O-] | 1380 nM | 3650 nM |

Reference: PubChem BioAssay (NCI)
